Reference: patent US20070244110A1, “Treatment of prostate cancer, melanoma or hepatic cancer” (ZENYAKU KOGYO KABUSHIKI KAISHA, priority 2006, published 2007)

Legend:
Hepatoma HepG2 cells = experiment: In vitro anti-tumor experiment, growth inhibition of HepG2 cells; assay type: cell-based; conditions: Homo sapiens; HepG2, 72 hours incubation
Method: (§1) Hepatoma HepG2 cells were cultured in a MEM culture medium (containing 10% fetal bovine serum, 25 mM HEPES and 0.1 mg/ml kanamycin) under conditions of 5% carbon dioxide at 37° C. HepG2 cells were harvested as single free cells by a tripsin/EDTA treatment in the logarithmic growth phase, and a cell suspension solution consisted of 2×10^4 cells per ml was prepared with MEM culture medium (containing 10% fetal bovine serum, 25 mM HEPES and 0.1 mg/ml kanamycin). The test compound was dissolved in DMSO, then diluted with RPMI1640 culture medium (containing 10% fetal bovine serum, 25 mM HEPES, 0.1 mg/ml kanamycin), and adjusted to a concentration of 2.0×10^−9 to 2.0×10^−3 M.
(§2) 0.1 ml of the cell suspension solution was put in each well of a 96-well plate, then cultured for 24 hours to make the cells adhere to the microplates, and 0.1 ml of the test compound was added in each well and incubated for 72 hours under conditions of 5% carbon dioxide at 37° C. The 50% growth inhibition concentration (GI50 value μM) was computed from the growth inhibition rates at various test sample concentrations, and the results are shown in Table 1.

[1] = test system: PC-3 prostate cancer cells; experiment: In vitro anti-tumor experiment, growth inhibition of PC-3 cells; assay type: cell-based; conditions: Homo sapiens; PC-3, 72 hours incubation
Method: as §1, §2
(§3) When using cells other than HepG2 cells, the following culture media were used instead of the MEM culture medium, and the following single cell suspensions were prepared with the following media:
PC-3 prostate cancer cells:
F12K culture medium containing 10% fetal bovine serum, 2×10^4 cell suspension

B16F10 melanoma cells = experiment: In vitro anti-tumor experiment, growth inhibition of B16F10 cells; assay type: cell-based; conditions: Mus musculus, B16-F10; B16F10, 72 hours incubation
Method: as §1, §2, §3
RPMI1640 culture medium containing 10% fetal bovine serum, 1×10^4 cell suspension

CC1(C)CN(c2nc(N3CCOCC3)nc(-n3c(C(F)F)nc4ccccc43)n2)CCO1 [Compound 2, 2-(2-difluoromethylbenzimidazol-1-yl)-4-(2,2-dimethylmorpholino)-6-morpholino-1,3,5-triazine]
GI50 (Hepatoma HepG2 cells): 1.5 µM
GI50 [1]: 0.74 µM
GI50 (B16F10 melanoma cells): 0.95 µM
melting point: 176 to 178 °C
